Here are results for four molecules from US20250057791A1, “PROTECTION AGAINST ARTHROPOD PARASITES WITH PURINERGIC RECEPTOR (OPR) ANTAGONISTS” (priority 2021, published 2025).

By inhibition is commonly meant the percentage by which the read-out fell short of the control. A low value points to a response near the control.

Assay [1] deals with A. gambiae mouthpart ATP-sensitive receptor. The experiment in a line: Electrophysiological response to 200 pM ATP with PR antagonist admixed. The assay is classed as cell-based, Anopheles gambiae. To be noted: for effect on EP response to ATP, in words: 200 pM ATP, suramin at 1 nM; for ID95 in nM (±s.e.m.): increasing doses admixed to 200 pM ATP. On the procedure:
The tip recording method was used to record action potentials (spikes) from sensory cells in sensilla on A. gambiae labellum lobes.
Sensilla were exposed to test compounds and PR antagonists for ca. 2-4 s and spikes were counted in the first 2 s of recordings. Up to 4 test compounds were tested on a sensillum to evaluate potential agonists, each presented at 200 pM. To study responses as a function of dose for agonists ATP, adenosine, AMP, AMP-CPP and ATP+adenosine, up to 7 recordings were made at increasing doses of agonist from the same sensillum. Unless otherwise stated, recordings were made throughout from 4 to 16 sensilla from individual 4-6-day-old females per dose of agonist, antagonist and metal ion modulator. For example, a response curve established over 6 doses of an antagonist using 8 sensilla per dose involved recording from a sensillum of 48 separate mosquitoes. A given dose of a PR antagonist or metal ion modulator was only presented once to a sensillum. Two-second recordings were imported as ASCII files into DataView software for analysis of spike amplitude. Differences in spike amplitude generated by stimulation of one 8v sensillum/female with 1 mM sucrose (n=294 spikes from 6 females) 200 pM adenosine (n=207 spikes from 7 females) and 200 pM ATP (n=192 spikes from 7 females) were compared by measuring the spike amplitude in mV between the highest point of depolarisation and the lowest point of hyperpolarisation.
Pairwise comparisons of A. gambiae electrophysiological (EP) responses to ATP and adenosine alone and combined with a given dose of PR antagonist, EP responses to ATP alone and combined with a given dose of a metal modulator, and EP responses to ATP prior to and after exposure of a sensillum to a given dose of a PR antagonist were made with a one-tailed Wilcoxon signed-rank test for data showing a non-normal distribution, with a paired Student's t-test for normally distributed data showing homogeneous variance and with a Welch's t-test for normally distributed data showing non-homogeneous variance. Effects on feeding of adding ATP, AMP-CPP, adenosine, ATP+adenosine, AMP and ADP-βS, CPT with ATP or adenosine, TMP with ATP+adenosine, TMP+CPT with ATP+adenosine to the FS for A. gambiae, and of adding PR antagonists with ATP to the FS for A. stephensi were compared using one-tailed Mann-Whitney U-test or Welch's t-test, depending on data distribution; Holm's FWEC was applied where treatment comparisons involved the same positive control. Percent feeding inhibition induced by PR antagonists in A. stephensi was calculated using Abbott's formula.
Dose-response models fitted to mosquito data were generated using the ‘drm’ command in the “drc” R package (version 2.5-12). Best fitting models (goodness of fit) and effects of dose of a compound were assessed using, respectively, ‘modelFit’ and ‘noEffect’ functions in the same R package. A 3-parameter logistic model (L3) was fitted to spike-counts recorded to increasing doses of adenosine, AMP, ATP and AMP-CPP. Spike numbers recorded in response to 200 pM ATP with increasing doses of PR antagonists added were analysed using a 4-parameter log-logistic model (LL.4) for A-317491 and spinorphin, using a 4-parameter Weibull model (W1.4) for PPADS, RB-2 and TMP, and using a 3-parameter log-logistic model (LL.3) for suramin. An L3 model was fitted to proportions of females feeding on increasing doses of ATP. Feeding rates on 20 μM ATP with increasing doses of a PR antagonist added were analysed using a 4-parameter log-logistic model (LL.4) with the median of the positive control (20 μM ATP) fixed as the upper asymptote. Response dynamics in 3-parameter models are related to the slope b, the upper asymptote, and inflexion point of the model e (the ED50 value), whereas 4 parameter models also include the lower asymptote parameter. […]

The next assay concerns A. stephensi. The assay can be described thus: Membrane feeding assay, A. stephensi. To be noted: for effect on feeding on solution containing ATP, in words: doses as in Table 8. It is filed as in vivo, Anopheles stephensi. The procedure: Experiments with A. gambiae and A. stephensi were made in a climate chamber at 28° C. and 80% RH during the last 6 hours of scotophase. As a sugar meal can interfere with the blood meal by reducing the number of females that feed, the sucrose solution supplied in rearing cages to mosquitoes employed for feeding experiments was reduced to 5%. […] The 5% sucrose solution was presented to mosquitoes from emergence on four 1 cm diam. cotton dental rolls (Hartmann A G, Neuhausen, Switzerland) inserted in 10 ml upturned glass vials placed in holes at each corner of the rearing cage ceiling. Cotton rolls were turned daily in vials and renewed every two days. Mosquitoes were not fed blood and were deprived of sucrose 17 to 20 hours before experiments. Thirty min before a feeding experiment, between 10-25, 6-day-old females that responded to activation by human breath were removed with a mouth aspirator from the rearing cage wall and placed in polystyrol cylinders with the floor cut out (10 cm dm×15 cm high; Semadeni, Ostermundigen, Switzerland) that served as feeding cages. Each cage was covered with mosquito netting at one end and a soft polyurethane lid at the other.
Mosquitoes were fed for 30 min using a feeding system (Hemotek®, Hemotek Ltd, Blackburn, UK) consisting of 3.5 ml stainless steel reservoirs 37 mm in diameter covered with a 60-90 μm thick silicone-impregnated membrane (Kröber and Guerin, 2007 in “Feeding assays for hard ticks”, Trends in parasitology 23, 445-449; doi 10.1016/j.pt.2007.07.010). Feeding reservoirs reached a temperature of 37° C. within 10 min and were placed on the netting of feeding cages. Mosquitoes were activated using a 200 ms pulse of pure CO2 (volume 6.25 ml) from a pressurised cylinder (Carbagas, Switzerland) using a solenoid valve that caused the CO2 level in the feeding cage to rise to at least 1,500 ppm. Between 3 and 4 sets of 10 feeding cages held in a custom-built Ertacetal® POM frame were tested per day, depending of the number of female mosquitoes available from the colony.
All compounds were tested in a mosquito feeding solution (FS) consisting of 25 mM dextrose, 25 mM NaCl buffered with 8.93 mM NaHCO3 adjusted to pH 7.4. Feeding responses of A. gambiae and A. stephensi to ATP as a function of dose were tested with between 7 to 10 feeding cages per dose. Each feeding experiment with an antagonist systematically included a treatment containing the FS as negative control along with a treatment containing the FS […] These positive and negative controls permitted to monitor any effect of experimental day on feeding responses as a function of dose for antagonists that were recorded over several days. […] Four to 10 cages each with 10 to 29 mosquitoes were tested per antagonist dose. […] The number of feeding cages used to test other compounds and their mixtures as feeding stimulants or as feeding inhibitors is listed on Table 6. The percentage of fed mosquitoes was estimated by visual inspection of abdominal distention that is indicative of engorgement.
Pairwise comparisons of A. gambiae electrophysiological (EP) responses to ATP and adenosine alone and combined with a given dose of PR antagonist, EP responses to ATP alone and combined with a given dose of a metal modulator, and EP responses to ATP prior to and after exposure of a sensillum to a given dose of a PR antagonist were made with a one-tailed Wilcoxon signed-rank test for data showing a non-normal distribution, with a paired Student's t-test for normally distributed data showing homogeneous variance and with a Welch's t-test for normally distributed data showing non-homogeneous variance. […]

As for `O=C(O)c1cc(C(=O)O)c(C(=O)N(Cc2cccc(Oc3ccccc3)c2)[C@H]2CCCc3ccccc32)cc1C(=O)O` [A-317491, 5-[(3-phenoxyphenyl)methyl-[(1S)-1,2,3,4-tetrahydronaphthalen-1-yl]carbamoyl]benzene-1,2,4-tricarboxylic acid], in assay [1], the “effect on EP response to ATP, in words” value is “inhibited”. The “Mean no. of spikes per 2 s (±s.e.m.), ATP + antagonist” value (“Mean no. of spikes per 2 s” below) in assay [1] (antagonist 0.5 nM + 200 pM ATP) turned out to be 7.5 spikes per 2 s. Also, the “% Fed females (mean ± s.e.m.)” value with A. stephensi (0.08 μM, feeding solution with 160 μM ATP) was found to be 29.68 ± 7.14%. The molecule also gave an inhibition at 0.08 µM in the assay on A. stephensi (Anopheles stephensi, 0.08 μM, Abbott's formula) of 59.3%. Further, the “effect on feeding on solution containing ATP, in words” value with A. stephensi was “inhibited feeding”.

As for `Nc1ncnc2c1ncn2[C@@H]1O[C@H](COP(=O)(O)OP(=O)(O)OP(=O)(O)O)[C@@H](O)[C@H]1O` [ATP, Adenosine 5′-triphosphate], in the assay with A. stephensi (ATP 160 μM, positive control), the “% Fed females (mean ± s.e.m.)” value is given as 72.96 ± 5.9%. Also, in the assay on A. stephensi (feeding as a function of dose), the “ED95, feeding stimulant” value amounted to 160000 nM.

As to `Cc1ccc(C(=O)Nc2ccc(S(=O)(=O)O)c3cc(S(=O)(=O)O)cc(S(=O)(=O)O)c23)cc1NC(=O)c1cccc(NC(=O)Nc2cccc(C(=O)Nc3cc(C(=O)Nc4ccc(S(=O)(=O)O)c5cc(S(=O)(=O)O)cc(S(=O)(=O)O)c45)ccc3C)c2)c1` [Suramin], the “Mean no. of spikes per 2 s” value in assay [1] (antagonist 0.6 nM + 200 pM ATP) turned out to be 4.20 spikes per 2 s. In assay [1], the “ID95 in nM (±s.e.m.)” value is 1.15 nM. The “% Fed females (mean ± s.e.m.)” value with A. stephensi (80 μM, feeding solution with 160 μM ATP) is listed as 30.04 ± 7.75%. Moreover, at 80 µM the inhibition in the assay on A. stephensi (Anopheles stephensi, 80 μM, Abbott's formula) was 58.8%.

In the case of `Cc1nc(C)c(C)nc1C` [TMP, 2,3,5,6-tetramethylpyrazine], in assay [1], the “effect on EP response to ATP, in words” value was “inhibited” and the “ID95 in nM (±s.e.m.)” value worked out at 27.50 nM. Further, the “Mean no. of spikes per 2 s” value in assay [1] (antagonist 10 nM + 200 pM ATP) came out at 11.2 spikes per 2 s. Further, the “% Fed females (mean ± s.e.m.)” value in the assay with A. stephensi (0.8 μM, feeding solution with 160 μM ATP) came to 26.67 ± 2.98%. In the assay with A. stephensi (Anopheles stephensi, 0.8 μM, Abbott's formula), this molecule showed an inhibition at 0.8 µM of 63.5%. The “effect on feeding on solution containing ATP, in words” value in the assay on A. stephensi was “inhibited feeding”.
